Test results reported in ChEMBL document CHEMBL1136027, “Design, synthesis and structure-activity relationships of novel imidazolo[1,2-a]pyrimid-5-ones as potent GnRH receptor antagonists” (Bioorg Med Chem Lett, 2002).

target: T1, Gonadotropin-releasing hormone receptor (Homo sapiens, UniProt P30968); experiment: Binding evaluated in cloned human Gonadotropin-releasing hormone receptor by displacement of [125 I-Tyr, DLeu, NMeLeu, Pro-NEt]GnRH agonist; conditions: not given
T1 sequence (P30968 whole entry): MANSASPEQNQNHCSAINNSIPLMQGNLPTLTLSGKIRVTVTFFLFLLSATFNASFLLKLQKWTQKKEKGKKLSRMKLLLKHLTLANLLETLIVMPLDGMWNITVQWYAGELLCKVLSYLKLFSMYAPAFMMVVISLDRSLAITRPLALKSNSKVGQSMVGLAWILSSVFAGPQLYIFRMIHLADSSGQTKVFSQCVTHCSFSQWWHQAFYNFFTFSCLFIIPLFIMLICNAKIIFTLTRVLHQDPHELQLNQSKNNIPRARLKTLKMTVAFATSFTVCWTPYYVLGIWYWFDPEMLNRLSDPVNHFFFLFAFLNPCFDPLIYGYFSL

Q: Which Ki does the source give for `COc1ccc(-c2nc3n(Cc4ccccc4F)c(C)c(-c4ccc5c(c4)OCO5)c(=O)n3c2CN(C)C2CCN(C)CC2)cc1` here?
A: The Ki was “Not Active”.

same assay, conditions: read-out: Ki

Q: For `COc1ccc(-c2nc3n(Cc4ccccc4F)c(C)c(-c4ccccc4OC)c(=O)n3c2CN(C)CCc2ccccn2)cc1`, which Ki is on record?
A: The Ki was 65 nM.

Q: Which Ki does the source give for `COc1ccc(-c2nc3n(Cc4ccccc4F)c(C)c(-c4cccc(OC)c4)c(=O)n3c2CN(C)CCc2ccccn2)cc1` here?
A: Its Ki is 4.6 nM.

Q: For `COc1ccc(-c2nc3n(Cc4ccccc4F)c(C)c(-c4ccc5c(c4)OCO5)c(=O)n3c2CN2CCCN(C)CC2)cc1`, which Ki is on record?
A: Its Ki is 9500 nM.

Q: For `COc1ccc(-c2nc3n(Cc4ccccc4F)c(C)c(-c4cccc(F)c4)c(=O)n3c2CN(C)CCc2ccccn2)cc1`, which Ki is on record?
A: Its Ki is 79 nM.

Q: For `COc1ccc(-c2nc3n(Cc4ccccc4F)c(C)c(-c4ccc5c(c4)OCO5)c(=O)n3c2CN(C)CCc2ccccc2)cc1`, which Ki is on record?
A: Its Ki is 110 nM.

Q: For `CCC(CC)OC(=O)c1cn(Cc2ccccc2F)c2nc(-c3ccc(OC)cc3)c(CN(C)CCc3ccccn3)n2c1=O`, which Ki is on record?
A: Its Ki is 230 nM.

Q: With `CCN(CC)CCN(C)Cc1c(-c2ccc(OC)cc2)nc2n(Cc3ccccc3F)c(C)c(-c3ccc4c(c3)OCO4)c(=O)n12` as the compound, how does the Ki read?
A: The Ki was 130 nM.

Q: For `COc1ccc(-c2nc3n(Cc4ccccc4F)c(C)c(-c4cccc(S)c4)c(=O)n3c2CN(C)CCc2ccccn2)cc1`, which Ki is on record?
A: The Ki was 56 nM.

Q: Which Ki does the source give for `COc1ccc(-c2nc3n(Cc4ccccc4F)c(C)c(-c4cc(Cl)cc(Cl)c4)c(=O)n3c2CN(C)CCc2ccccn2)cc1` here?
A: The Ki was 100 nM.

Q: With `COc1ccc(-c2nc3n(Cc4ccccc4F)c(C)c(-c4cccc(C(F)(F)F)c4)c(=O)n3c2CN(C)CCc2ccccn2)cc1` as the compound, how does the Ki read?
A: Its Ki is 140 nM.

Q: For `COc1ccc(-c2nc3n(Cc4ccccc4F)c(C)c(-c4ccc(OC)cc4)c(=O)n3c2CN(C)CCc2ccccn2)cc1`, which Ki is on record?
A: The Ki was 18 nM.

Q: For `COCCN(C)Cc1c(-c2ccc(OC)cc2)nc2n(Cc3ccccc3F)c(C)c(-c3ccc4c(c3)OCO4)c(=O)n12`, which Ki is on record?
A: The Ki was 150 nM.

Q: For `CCCCN(C)Cc1c(-c2ccc(OC)cc2)nc2n(Cc3ccccc3F)c(C)c(-c3ccc4c(c3)OCO4)c(=O)n12`, which Ki is on record?
A: The Ki was 220 nM.

Q: Which Ki does the source give for `COc1ccc(-c2nc3n(Cc4ccccc4F)c(C)c(Br)c(=O)n3c2CN(C)CCc2ccccn2)cc1` here?
A: The Ki was 2500 nM.

Q: With `COc1ccc(-c2nc3n(Cc4ccccc4F)c(C)c(-c4ccc(OC)c(OC)c4)c(=O)n3c2CN(C)CCc2ccccn2)cc1` as the compound, how does the Ki read?
A: Its Ki is 110 nM.

Q: For `COc1ccc(-c2nc3n(Cc4ccccc4F)c(C)c(-c4ccc5c(c4)OCO5)c(=O)n3c2CN2CCOCC2)cc1`, which Ki is on record?
A: The Ki was 28000 nM.

Q: With `COc1ccc(-c2nc3n(Cc4ccccc4F)c(C)c(-c4ccc5c(c4)OCO5)c(=O)n3c2CN(C)CCc2ccccn2)cc1` as the compound, how does the Ki read?
A: The Ki was 11 nM.

Q: With `COc1ccc(-c2nc3n(Cc4ccccc4F)c(C)c(-c4ccc5c(c4)OCO5)c(=O)n3c2CN(C)CCc2ccncc2)cc1` as the compound, how does the Ki read?
A: Its Ki is 1400 nM.

Q: For `COc1ccc(-c2nc3n(Cc4ccccc4F)c(C)c(-c4ccc5c(c4)OCO5)c(=O)n3c2CN(C)Cc2ccccc2)cc1`, which Ki is on record?
A: The Ki was 47 nM.

Q: With `COc1ccc(-c2nc3n(Cc4ccccc4F)c(C)c(-c4cc(OC)c(OC)c(OC)c4)c(=O)n3c2CN(C)CCc2ccccn2)cc1` as the compound, how does the Ki read?
A: Its Ki is 370 nM.

Q: Which Ki does the source give for `COc1ccc(-c2nc3n(Cc4ccccc4F)c(C)c(-c4ccc5c(c4)OCO5)c(=O)n3c2CN(C)CCc2ccccc2F)cc1` here?
A: Its Ki is 67 nM.

system: not listed separately; experiment: Half-life in rat plasma was determined; assay type: ADME, organism-based; conditions: not given

Q: For `CCC(CC)OC(=O)c1cn(Cc2ccccc2F)c2cc(-c3ccc(NC(C)=O)cc3)c(CN(C)CCc3ccccn3)n2c1=O`, which half-life is on record?
A: Its half-life is 28 min.
